Measured values reported in patent US20120083522A1, “MODULATION OF INFLAMMATORY RESPONSES BY FACTOR XI” (Isis Pharmaceuitcals, inc., priority 2009, published 2012).
In the oligonucleotide strings, read from the 5' end, every base follows the letter of its sugar. An asterisk marks phosphorothioate; unmarked linkages are phosphodiester. Other units and linkages are bracketed, terminal groups are in braces. A string of capitals states the bases alone. e = 2'-O-(2-methoxyethyl) (MOE); [5mC] = 5-methylcytosine; d = 2'-deoxy (DNA)

Columns and labels:
human Factor XI mRNA = assay: Antisense inhibition of human Factor XI in HepG2 cells, 75 nM, lipofectin (Example 1); type: cell-based; settings: HepG2, 75 nM, approximately 24 hours, gapmers targeted to SEQ ID NO: 1, relative to untreated control cells
Experimental: Antisense oligonucleotides targeted to a Factor XI nucleic acid were tested for their effects on Factor XI mRNA in vitro. Cultured HepG2 cells at a density of 10,000 cells per well were transfected using lipofectin reagent with 75 nM antisense oligonucleotide. After a treatment period of approximately 24 hours, RNA was isolated from the cells and Factor XI mRNA levels were measured by quantitative real-time PCR. Factor XI mRNA levels were adjusted according to total RNA content, as measured by RIBOGREEN®. Results are presented as percent inhibition of Factor XI, relative to untreated control cells.
The chimeric antisense oligonucleotides in Tables 1 and 2 were designed as 5-10-5 MOE gapmers. The gapmers are 20 nucleotides in length, wherein the central gap segment is comprised of 10 2′-deoxynucleotides and is flanked on both sides (in the 5′ and 3′ directions) by wings comprising 5 nucleotides each. Each nucleotide in the 5′ wing segment and each nucleotide in the 3′ wing segment has a 2′-MOE modification. The internucleoside linkages throughout each gapmer are phosphorothioate (P═S) linkages. All cytidine residues throughout each gapmer are 5-methylcytidines. “Target start site” indicates the 5′-most nucleotide to which the gapmer is targeted. “Target stop site” indicates the 3′-most nucleotide to which the gapmer is targeted. […]

[1] = Cynomolgus monkeys: body and organ weights (Example 30); type: in vivo; settings: day 55
Experimental: (§1) Groups, each consisting of two male and two female monkeys, were injected subcutaneously with 25 mg/kg of ISIS 416850, ISIS 449709, ISIS 445522, ISIS 449710, ISIS 449707, ISIS 449711, ISIS 449708, 416858 and ISIS 445531. Antisense oligonucleotide was administered to the monkeys at 25 mg/kg three times per week for week 1 and 25 mg/kg twice per week for weeks 2 to 8. A control group, consisting of two male and two female monkeys was injected subcutaneously with PBS according to the same dosing regimen. Body weights were taken 14 days and 7 days before the start of treatment and were then measured weekly throughout the treatment period. Blood samples were collected 14 days and 5 days before the start of treatment and subsequently several times during the dosing regimen for measurement of various hematologic factors. On day 55, the monkeys were euthanized by exsanguination while under deep anesthesia, and organs harvested for further analysis.
Organ weights were taken after the animals were euthanized on day 55, and livers, kidneys and spleens were harvested.

[2] = system: IL-1β, IL-6, IFN-γ, TNF-α, IL-8, MIP-1α, MCP-1, MIP-10, RANTES; assay: Cynomolgus monkeys: cytokine and chemokine assays (Example 30); type: in vivo
Experimental: as §1
Blood samples obtained from all monkey groups were sent to Pierce Biotechnology (Woburn, Mass.) for measurements of chemokine and cytokine levels. Levels of IL-1β, IL-6, IFN-γ, and TNF-α were measured using the respective primate antibodies and levels of IL-8, MIP-1α, MCP-1, MIP-10 and RANTES were measured using the respective cross-reacting human antibodies. Measurements were taken 14 days before the start of treatment and on day 55, when the monkeys were euthanized.

[3] = system: DSS-induced colitis model; assay: Colitis Study B: body weight and colon length; type: in vivo, Swiss Webb mice; settings: for Body weight / Colon length: DSS-induced colitis, day 7, 20 mg/kg s.c. twice a week for 3 weeks, percent change compared to the PBS control
Experimental: (§2) In a first group of 8 Swiss Webb mice, 20 mg/kg of ISIS 404071 was injected subcutaneously twice a week for 3 weeks. In a second group of 8 Swiss Webb mice, 20 mg/kg of ISIS 404057 was subcutaneously injected twice a week for 3 weeks. In a third control group of 8 Swiss Webb mice, 20 mg/kg of ISISI 421208 was injected subcutaneously twice a week for 3 weeks. Two control groups of 8 mice each were injected with PBS twice a week for 3 weeks. After the oligonucleotide treatment, 4% DSS in water was administered ad libitum for 6 days to all the experimental groups and one PBS control group.
(§3) Mice in all groups were weighed at day 0 and daily after administration of DSS. Mice were sacrificed at the end of the study on day 7 after DSS was administered, their livers and colons were harvested for RNA analysis, and their body weights and colon lengths were measured.

murine Factor XI mRNA [4] = assay: Colitis Study B: Factor XI mRNA in the liver; type: in vivo, Swiss Webb mice; settings: DSS-induced colitis, day 7, 20 mg/kg s.c. twice a week for 3 weeks, percent change compared to the PBS control
Experimental: as §2, §3
RT-PCR analysis of Factor XI mRNA was performed. As presented in Table 27 and FIG. 10, antisense oligonucleotides targeting Factor XI achieved statistically significant dose-dependent reduction of murine Factor XI over the PBS control in the liver. All the measurements are normalized to cyclophilin.
All the results in Table 27 are expressed as percent change compared to the PBS control.

Factor XI mRNA = assay: Arthritis Study B: liver Factor XI mRNA; type: in vivo, DBA/1J mice; settings: FIG. 4B
Experimental: (§4) In a group of 20 DBA/1J mice, 20 mg/kg of ISIS 404071 were injected subcutaneously twice a week for ten weeks. In a second group of 20 DBA/1J mice, 20 mg/kg of ISIS 404057 were injected subcutaneously twice a week for ten weeks. In a third control group of 20 DBA/1J mice, 20 mg/kg of ISIS 421208 were injected subcutaneously twice a week for ten weeks. Two control groups of 20 mice each were injected with PBS twice a week for ten weeks.
(§5) Mice in all groups were examined daily after day 30 after the first collagen injection for the visual appearance of arthritis in peripheral joints. The results in Table 22 are expressed as percent change compared to the PBS control except for the liver and spleen weight.
The difference between the effective of the two Factor XI antisense oligonucleotides may be related to the relative effectiveness of each oligonucleotide in inhibiting Factor XI mRNA as shown in FIG. 4B.

[5] = system: collagen-induced arthritis model; assay: Arthritis Study B: collagen-induced arthritis, clinical effects (Example 11); type: in vivo, DBA/1J mice
Experimental: The effect of inhibition of Factor XI and its role in fibrin accumulation in the joints leading to joint inflammation and rheumatoid arthritis was evaluated in a murine collagen-induced arthritis (CIA) model. […] Arthritis induced in mice administered collagen can be visually assessed and clinically scored as described by Marty et al. (J Clin Invest, 107:631-640, 2001) where 1 point is given for each swollen digit except the thumb (maximum, 4), 1 point is given for the tarsal or carpal joint, and 1 point is given for the metatarsal or metacarpal joint with a maximum score of […]. Each paw was graded individually, the cumulative clinical arthritic score per mouse reaching a maximum of 22 points
as §4
Two and a half weeks after the first oligonucleotide dose, type II bovine collagen in complete Freund's adjuvant was injected subcutaneously at the base of the tail in all the experimental groups and one PBS control group. A booster injection containing 100 μg collagen type II in incomplete Freund's adjuvant was injected subcutaneously at the base of the tail at a different injection site on day 21 after the first collagen injection in these groups.
as §5

murine Factor XI mRNA [6] = assay: In vivo antisense inhibition of murine Factor XI: liver RNA analysis (Example 10); settings: BALB/c mice, relative to PBS control
Experimental: Several antisense oligonucleotides targeted to murine Factor XI mRNA (GENBANK Accession No. NM_028066.1, incorporated herein as SEQ ID NO: 6) showing statistically significant dose-dependent inhibition from the in vitro study were evaluated in vivo. BALB/c mice were treated with ISIS 404057 ([…], target start site 487, incorporated herein as SEQ ID NO: 10) and ISIS 404071 ([…], target start site 869, incorporated herein as SEQ ID NO: 11).
BALB/c mice were injected with 5 mg/kg, 10 mg/kg, 25 mg/kg, or 50 mg/kg of ISIS 404057 or ISIS 404071 twice a week for 3 weeks. A control group of mice was injected with phosphate buffered saline (PBS) twice a week for 3 weeks. Mice were sacrificed 5 days after receiving the last dose. Whole liver was harvested for RNA analysis and plasma was collected for protein analysis.
RNA was extracted from liver tissue for real-time PCR analysis of Factor XI. […] Results are presented as percent inhibition of Factor XI, relative to control.

[7] = system: OVA/alum-induced asthma model; assay: OVA-induced asthma model: BAL eosinophil recruitment (Example 13); type: in vivo, BALB/c mice; settings: percentage of total cells in BAL, 50 mg/kg s.c. twice a week for 4 weeks
Experimental: The effect of antisense oligonucleotide inhibition of Factor XI and its role in ameliorating asthma was evaluated in an OVA/alum-induced asthma model. Administration of ovalbumin to animals is a well known method to induce […] and has been previously described by Henderson et al. (J. Exp. Med., 1996, 184: 1483-1494).
(§6) The mice were divided into four treatment groups of 5 mice each. One group received subcutaneous injections of ISIS 404071 at a dose of 50 mg/kg twice a week for 4 weeks. One group of mice received subcutaneous injections of control oligonucleotide, ISIS 421208, which is a mismatch oligonucleotide sequence of ISIS 404071, at a dose of 50 mg/kg twice a week for 4 weeks. Two groups of mice received subcutaneous injections of PBS twice a week for 4 weeks. One PBS group remained untreated and served as the control group. The second PBS group and both the oligonucleotide treated groups were injected with OVA/alum on days 0 and 14 and nebulized with OVA in PBS on days 24, 25, and 26. The first OVA application served to sensitize the mice against OVA while the second was a challenge application to provoke an asthmatic reaction. Two days following the final dose, the mice were euthanized, bronchial lavage (BAL) was collected and analyses done.
Bronchial asthma, even in its mild form, is characterized by local infiltration and activation of inflammatory and immunoeffector cells, including T lymphocytes, macrophages, eosinophils, and mast cells (Smith D. L. et al., Am. Rev. Respir. Dis. 1993. 148: 523-532). The effect of treatment with ISIS 404071 on bronchoalveolar lavage (BAL) eosinophil recruitment was assessed. BAL cells were stained with hemotoxylin and eosin (H&E). The results are presented in Table 49 as a percentage of total cells in BAL.

[8] = system: OVA/alum-induced asthma model; assay: OVA-induced asthma model: mucus production (Example 13); type: in vivo, BALB/c mice; settings: BALB/c mice, 50 mg/kg s.c. twice a week for 4 weeks, PAS stain of lung sections
Experimental: as §6
Lung sections were stained with periodic acid […] (PAS) base stain that stains mucus, which is produced during asthma attacks (Rogers, D. F. Curr. Opin Pharmacol. 2004. 4: 241-250). The number of airways containing mucus as a percentage of the total airways in the lungs was evaluated.

[9] = Arthritis Study B: liver and spleen weight, ALT, AST; type: in vivo; settings: collagen-treated DBA/1J mice, 20 mg/kg s.c. twice a week for ten weeks
Experimental: as §4, §5

[10] = day −14 (before start of treatment)
[11] = DBA/1J mice, 20 mg/kg s.c. twice a week for ten weeks, end of study

Substance: 412213 (antisense eA*eA*eA*e[5mC]*eA*dA*dG*d[5mC]*dA*dA*d[5mC]*d[5mC]*dG*dG*dG*eA*eT*eG*eA*eT) [compound 412213]
- % inhibition (human Factor XI mRNA): 71%

Substance: ISIS 449711: microwalk gapmer of Table 53 (antisense eA*e[5mC]*dA*dG*dT*dT*dT*d[5mC]*dT*dG*dG*d[5mC]*eA*eG)
- spleen weight (in words) [1]: caused increase in spleen weight
- IL-1β level ([2]; 25 mg/kg s.c., day 55): 146 pg/mL
- MIP-1β level ([2]; 25 mg/kg s.c., day 55): 91 pg/mL
- IL-1β level [2, 10]: 79 pg/mL
- MIP-1β level [2, 10]: 24 pg/mL

Substance: TCCTGGCATTCTCGAGCATT (eT*e[5mC]*e[5mC]*eT*eG*dG*d[5mC]*dA*dT*dT*d[5mC]*dT*d[5mC]*dG*dA*eG*e[5mC]*eA*eT*eT) [ISIS 404057, 5-10-5 MOE gapmer targeting murine Factor XI, target start site 487]
- body weight (in words) ([3]; Colitis Study B, FIG. 9): did not have any significant change in body weight
- Body weight [3]: −16%
- Colon length [3]: −11%
- Liver Factor XI mRNA (murine Factor XI mRNA [4]): −50%
- Factor XI inhibition in liver (in words) (Factor XI mRNA): lack of Factor XI inhibition
- amount of arthritis assessed (in words) ([5]; Arthritis Study B, 20 mg/kg twice a week for ten weeks, compared to untreated mice): did not affect the amount of arthritis
- % inhibition (murine Factor XI mRNA [6]; 5 mg/kg twice a week for 3 weeks): 40%
- % inhibition (murine Factor XI mRNA [6]; 10 mg/kg twice a week for 3 weeks): 64%
- % inhibition (murine Factor XI mRNA [6]; 25 mg/kg twice a week for 3 weeks): 85%
- % inhibition (murine Factor XI mRNA [6]; 50 mg/kg twice a week for 3 weeks): 95%

Substance: TCGGAAGC GACTCTTATATG (eT*e[5mC]*eG*eG*eA*dA*dG*d[5mC]*dG*dA*d[5mC]*dT*d[5mC]*dT*dT*eA*eT*eA*eT*eG) [ISIS 421208, control oligonucleotide for ISIS 404071 with 8 mismatches, 5-10-5 MOE gapmer, reference compound]
- Body weight [3]: −10%
- Colon length [3]: −33%
- Eosinophils [7]: 51%
- Liver Factor XI mRNA (murine Factor XI mRNA [4]): +25%
- Mucus production, % airways containing mucus [8]: 49 % airways
- % of CIA [5, 11]: 81%
- % of paws affected [5, 11]: 45%
- Average no. of paws affected [5, 11]: 1.7
- Clinical severity of CIA [5, 11]: 7.75
- Liver ALT [9]: 70.06
- Liver AST [9]: 165.12
- Liver Weight as a % of Body Weight [9]: 6.14%
- Spleen Weight as a % of Body Weight [9]: 0.718 % of Body Weight
